According to patent publication US10986834B2, “Peptide-containing composition and stabilizer, stabilizing method, and storage method for peptide” (KANEKA CORPORATION, priority 2016, dated 2021):

details: 1% by mass in distilled water at 25° C.
Description: Potassium sulfate, dipotassium hydrogen phosphate, and potassium bicarbonate components were each dissolved in distilled water at 25° C. to be a concentration of 1% by mass and stirred sufficiently.

pH | SMILES
3.3 | O=S(=O)([O-])[O-].[K+].[K+] [Potassium sulfate]
8.3 | O=C([O-])O.[K+] [Potassium bicarbonate]

SMILES | pH
O=P([O-])([O-])O.[K+].[K+] [Dipotassium hydrogen phosphate] | 9.0
